Assay results reported in patent US8524304B2, “High-potency sweetener composition with probiotics/prebiotics and compositions sweetened therewith” (The Coca-Cola Company, priority 2005, dated 2013).

Assays:
[1] = Sensory evaluation of sweetness linger by a panel of experts; format: in vivo; set-up: key: 0: no sweetness linger; 1: very slight sweetness linger; 2: slight sweetness linger; 3: moderate sweetness linger; 4: moderately high sweetness linger; 5: high sweetness linger; conditions: scale 0-5
Description: Sensory evaluation of the samples prepared in Example Set G was carried out under the following protocol, similar to that described hereinabove. In this test protocol, none of the samples were swallowed. All samples were expectorated and the mouth was rinsed with water after the tasting. Immediately upon sensing maximal sweetness, the sample was expectorated, the mouth was rinsed with water and the rate of sweetness decay (“Sweetness Linger”) was measured, where attention was focused on the sweetness 3-4 min after the water rinse. After sample tasting was complete, a salty oyster cracker was chewed followed by a water rinse, and at least 5 minutes followed before tasting the next sample. The sweetness linger was rated by a panel of experts in the sensory evaluation of foods and beverages using the following scale: 0=no sweetness linger, 1=very slight sweetness linger, 2=slight sweetness linger, 3=moderate sweetness linger, 4=moderately high sweetness linger, 5=high sweetness linger.
The “Sweetness Linger” rating for sucrose observed by this protocol is defined as 0. The Sweetness Linger of a 500 ppm of REBA control sample is defined as 5. Experimental samples were tasted by the same protocol, always allowing sufficient time between samples to ensure re-equilibration of the sensory system. Re-tasting of control samples during the course of the experiment was allowed and encouraged. […]
Sweet taste improving compositions were combined with a REBA solution to determine their effect on sweetness linger, Screening of the initial sample, or further dilutions, allowed identification of concentrations which were just above-threshold, herein defined as “near-threshold concentrations.” The near-threshold additive concentrations, a 6- to 100-fold higher higher additive concentration (depending on the off-taste intensity), and a mid-level additive concentration (halfway between the near-threshold and higher additive concentration) were evaluated to determine the effect on sweetness linger of a REBA solution. […]

[2] = format: physicochemical
Description: A solution of rebaudioside A (>97% pure by HPLC ) was prepared in double distilled water (12.5 gm in 50 mL, 25% concentration) by stirring the mixture at 40° C. for 5 minutes. An amorphous form of rebaudioside A was formed by immediately using the clear solution for spray drying with the Lab-Plant spray drier SD-04 instrument (Lab-Plant Ltd., West Yorkshire, U.K.). The solution was fed through the feed pump into the nozzle atomizer which atomized it into a spray of droplets with the help of a constant flow of nitrogen/air. […] This dry powder (11-12 g, H2O 6.74%) was discharged continuously from the drying chamber and was collected in a bottle.

[3] = Rate of dissolution of rebaudioside A polymorph and amorphous forms in H2O at 25° C.; format: physicochemical

Compound	sweetness linger ([1]; Example Set G: citric acid/potassium citrate composition equivalent to a diet lemon-lime beverage, 400 ppm REBA base, sweetness 3-4 min after water rinse)	sweetness linger ([1]; Example Set H: carbon-treated water with phosphoric acid (75%) to pH 2.4-2.5, 500 ppm REBA base)	Sweetness Linger rating ([1]; control ratings defined for the protocol)	solubility in water at room temperature [2]	Rate of dissolution in H2O at 25° C. [3]
C=C1C[C@@]23CC[C@H]4[C@@](C)(CCC[C@@]4(C)C(=O)O[C@@H]4O[C@H](CO)[C@@H](O)[C@H](O)[C@H]4O)[C@@H]2CC[C@]1(O[C@@H]1O[C@H](CO)[C@@H](O)[C@H](O[C@@H]2O[C@H](CO)[C@@H](O)[C@H](O)[C@H]2O)[C@H]1O[C@@H]1O[C@H](CO)[C@@H](O)[C@H](O)[C@H]1O)C3 [REBA, rebaudioside A]	5	5	5	–	–
C=C1C[C@@]23CC[C@H]4[C@@](C)(CCC[C@@]4(C)C(=O)O[C@@H]4O[C@H](CO)[C@@H](O)[C@H](O)[C@H]4O)[C@@H]2CC[C@]1(O[C@@H]1O[C@H](CO)[C@@H](O)[C@H](O[C@@H]2O[C@H](CO)[C@@H](O)[C@H](O)[C@H]2O)[C@H]1O[C@@H]1O[C@H](CO)[C@@H](O)[C@H](O)[C@H]1O)C3 [Form 4, rebaudioside A]	–	–	–	> 35.0%	High (>35%/5 %/5 minutes
